From patent publication US10071095B2, “1,2,4-triazolo [4,3-A] pyridine derivatives and their use for the treatment of neurological and psychiatric disorders” (JANSSEN PHARMACEUTICALS, INC., priority 2009, dated 2018)
Like-named read-outs stand apart in the source and are kept apart here. Marks after values point to notes of the source that are not given here.

How the values were obtained:
REM sleep in rats = assay: Sleep wake electroencephalography (SW-EEG) in rats; format: in vivo
Excerpt: Sleep Wake Electroencephalography (SW-EEG) in Rats
SW-EEG analyses are a highly sensitive read-out of a compound's central functional activity that may provide additional insight in the potential therapeutic application (i.e. via drug classification fingerprinting). […] Internal efforts have confirmed that this effect is mGlu2 receptor-mediated, i.e. is absent in mGlu2 KO mice. Sleep abnormalities are often associated with CNS disorders; as such, the potential use of mGlu2 modulators could also have benefit in the treatment of CNS disorders in which (REM) sleep aberrations are manifested. More specifically, the combination of a persistent reduction in REM occurrence and an increase in REM latency is one of the key features of the typical SW architecture fingerprint of most clinically active antidepressants.
We investigated the effects of oral administration of compounds according to the invention on SW organization in rats. The mGlu2/3 receptor agonists LY404039 and LY354740 were also evaluated to allow comparison.

[1] = tested on: memantine-induced 2DG uptake in mouse brain (hippocampus); assay: Reversal of memantine-induced brain activation ([14C]2DG uptake) in mice; format: in vivo; settings: for L.A.D. (lowest active dose for significant reduction of 2DG uptake in hippocampus vs memantine response): mice C57BL/6, s.c., memantine 20 mg/kg s.c., p<0.05
Description: Reversal of Memantine-Induced Brain Activation in Mice
NMDA receptor hypofunction is hypothesized to be involved in schizophrenia.
Autoradiographic assessment of radiolabeled [^14C]-2-deoxyglucose ([^14C]2DG) uptake is commonly used to investigate brain activation. In humans, cerebral blood flow is increased in specific brain regions after administration of a subanaesthetic dose of ketamine.
Male mice (C57BL/6, weight 24-28 g, fasted overnight; n=10 animals per group) were treated with vehicle or test compound (s.c.) in randomized order (t=0 min). Memantine (20 mg/kg, s.c.) was injected 30 min later (t=30 min). At t=45 min, [^14C]2DG (0.16 μCi/g) was administered intraperitoneally (i.p.), followed by a 45 min uptake period. Animals were decapitated (t=90 min), plasma glucose levels measured, the brain removed, rapidly frozen and stored at −20° C. until sectioned. Brain sections were exposed together to a precalibrated [^14C]standard on film, which was developed after four days of exposure. Local tissue [^14C]concentration (nCi/mg tissue equivalent—TEQ—) in each region of interest was determined.
Data was analyzed statistically using a two-way ANOVA analysis followed by post-hoc tests (memantine response versus reversal by the compound). The results are shown in table 5 below, expressed as lowest active dose (L.A.D.) required to exert a statistically significant (p<0.05) reduction of 2DG uptake in the hippocampus compared to memantine response.

[2] = tested on: conditioned avoidance response in male Wiga Wistar rats; assay: Conditioned avoidance response (CAR) test in rats; format: in vivo; settings: for ED50: Rattus norvegicus, po, read-out: ED50 (mg/kg) CAR-Inh.
Excerpt: Conditioned Avoidance Response (CAR) Test
The apparatus consisted of an inner box surrounded by an outer box. The inner box was composed of four walls of transparent, synthetic material (length×width×height: 30×30×30 cm), an open top, and a grid floor made of 15 pairs of iron bars (2 mm diameter; 6 mm inter-bar distance). Odd and even bars were connected with a source of alternative current (1.0 mA; Coulbourn Instruments Solid State Shocker/Distributor), which could be interrupted by a switch. The outer box was composed of the same material (length×width×height: 40×40×36 cm), also with an open top, with a distance of 5 cm between the inner and outer box on all sides. To decrease the amount of environmental stimuli, three walls of the outer box were made non-transparent. The front wall was left transparent to allow the necessary inspection of the animal during the test. The upper edge of the outer and inner box served as a target for the rats on which to jump with fore- and hind-paws, respectively.
Avoidance Conditioning and Selection of Animals
From their arrival in the laboratory on the experimental day, male Wiga Wistar rats (230±30 g) were housed in individual cages provided with bedding material.
Latency to avoidance was recorded. The median avoidance response obtained over the three experimental sessions for each rat were used for further calculations.

[3] = tested on: PCP-induced hyperlocomotion in male NMRI mice; assay: Phencyclidine (PCP)-induced hyperlocomotion in mice (video tracking); format: in vivo; settings: for ED50: Mus musculus, read-out: Mice ED50 (mg/kg) PCP-Inh.
Description: (§1) Motor Activity (Video Tracking)
(§2) Apparatus and General Procedure
(§3) On the day of experiments, the mice were brought into the procedural room. They were housed individually and allowed to acclimate for at least a half hour prior to testing. Although the studies were conducted during the light cycle (from 8:00 to 16:00 h), the procedure room was only sparsely lit (3 to 30 LUX) to provide better contrast for the video tracking. Local lighting was used for the injection procedures. During each trial, an individual mouse was placed in an open field arena (grey PVC cylinder with a height of 40 cm and a diameter of 22.5 cm). Each arena was placed on an infrared LED (8×8 LEDs)-lit box (white PVC squared box; 40×40 cm^2; height 12.5 cm). Each mouse was placed in the center of the arena and allowed to explore freely for 30 min. After each trial, the arena was cleaned with a wet and subsequently with a dry cleaning cloth. An infrared sensitive tube camera and a white light source (in arena: 4-7 LUX) were mounted to the ceiling above the observation chamber to record and input activity to a computer. Animal behavior was recorded and analyzed using the Noldus Ethovision XT Video Tracking System (Version 3.1; Noldus, Wageningen, The Netherlands). The total distance traveled (cm) was calculated. Data were then exported to data management systems for further analysis and reporting.
Phencyclidine (PCP)-Induced Hyperlocomotion in Mice
Test compound or solvent was administered at a pre-defined time before measurement (standard: 30 min) to male NMRI mice that were challenged with phencyclidine (PCP; 5 mg/kg, s.c.) 30 min before measurement. Activity was measured for a period of 30 min.

human mGluR2 receptor = biological target: T1, human mGluR2 receptor (Homo sapiens, UniProt Q14416); assay: [35S]GTPγS binding assay, positive allosteric modulation (GTPγS-PAM) in presence of EC20 glutamate; format: biochemical; settings: in presence of glutamate at EC20; average pEC50 if more experiments; ‡ means tested once
T1 construct: expressed in transfected cells; host or cells: CHO cells
Procedure, shortened: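 Membranes from butyrate-stimulated CHO cells expressing human mGluR2 (7 μg protein) preincubated 30 min at 30°C with compound plus ~EC20 glutamate in HEPES pH 7.4, 100 mM NaCl, 3 mM MgCl2, 10 μM GDP, 10 μg/ml saponin. [35S]GTPγS (0.1 nM) incorporation over 30 min at 30°C measured by filtration and scintillation counting.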

[4] = tested on: d-amphetamine-induced hyperlocomotion in male NMRI mice; assay: d-Amphetamine-induced hyperlocomotion in mice (video tracking); format: in vivo
Description: as §1, §2
as §3, with “An infrared sensitive tube camera and a white light source (in arena: 4-7 LUX) were mounted to the ceiling above the observation chamber to record and input activity to a computer.” left out, “Data were then exported to data management systems for further analysis and reporting.” left out
Test compound or solvent was administered at a pre-defined time before measurement (standard: 30 min) to male NMRI mice that were challenged with d-amphetamine (5 mg/kg, s.c.) 30 min before measurement. Activity was measured for a period of 30 min.

[5] = compound administered orally (*); a)/b) = estimated ED50 values
[6] = not marked * (not oral; injection per method); b) = estimated ED50 values (n = 3 per dose)

T1 sequence (Q14416 19-872): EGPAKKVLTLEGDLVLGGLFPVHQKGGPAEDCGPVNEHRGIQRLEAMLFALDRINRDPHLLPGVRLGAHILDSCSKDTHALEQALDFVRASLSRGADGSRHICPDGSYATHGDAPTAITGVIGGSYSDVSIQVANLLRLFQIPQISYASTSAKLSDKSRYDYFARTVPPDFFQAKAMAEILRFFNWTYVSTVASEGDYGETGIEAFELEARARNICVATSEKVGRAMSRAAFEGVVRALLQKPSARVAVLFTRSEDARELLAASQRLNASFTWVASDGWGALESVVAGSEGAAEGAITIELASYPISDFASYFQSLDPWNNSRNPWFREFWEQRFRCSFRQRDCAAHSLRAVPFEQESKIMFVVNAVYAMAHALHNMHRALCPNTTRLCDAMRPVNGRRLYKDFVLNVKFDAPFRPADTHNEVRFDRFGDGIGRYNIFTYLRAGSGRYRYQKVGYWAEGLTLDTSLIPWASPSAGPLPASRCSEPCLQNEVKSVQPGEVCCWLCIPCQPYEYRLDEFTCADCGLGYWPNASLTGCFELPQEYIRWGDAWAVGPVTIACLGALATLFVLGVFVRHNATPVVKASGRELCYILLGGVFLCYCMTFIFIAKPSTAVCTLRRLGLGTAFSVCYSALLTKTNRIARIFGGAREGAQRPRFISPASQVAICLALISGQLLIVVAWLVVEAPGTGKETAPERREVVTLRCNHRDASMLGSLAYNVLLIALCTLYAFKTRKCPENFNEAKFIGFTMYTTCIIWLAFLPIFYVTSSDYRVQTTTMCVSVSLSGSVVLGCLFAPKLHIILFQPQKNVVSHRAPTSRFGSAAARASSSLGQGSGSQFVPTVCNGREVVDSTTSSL

Compound | inhibition of the conditioned avoidance response in rats (in words) [2] | ED50 [2, 5] [mg/kg] | ED50 [2, 6] [mg/kg] | ED50 [3] [mg/kg] | inhibition of PCP-induced hyperlocomotion in mice (in words) ([3]; mice) | L.A.D. (lowest active dose for significant reduction of 2DG uptake in hippocampus vs memantine response) [1] | GTPγS - hR2 PAM pEC50 (human mGluR2 receptor) | also measured
N[C@@]1(C(=O)O)CC[C@H]2[C@H](C(=O)O)[C@H]21 [LY354740] | – | – | – | – | – | – | – | lowest active dose, decrease in REM sleep (REM sleep in rats; acute dosing, s.c.): 3 mg/kg; effect of subchronic treatment on REM sleep effect (in words) (REM sleep in rats; once daily dosing for 7 days, 1, 3, 10 mg/kg, s.c.): led to tolerance
N[C@@]1(C(=O)O)CS(=O)(=O)[C@H]2[C@H](C(=O)O)[C@H]21 [LY404039, reference compound] | – | – | – | – | – | – | – | effect on REM sleep (in words) (REM sleep in rats; 3 mg/kg, p.o.): affect REM sleep; effect on memantine-induced brain glucose metabolism / 2DG uptake (in words) ([1]; mouse brain, reference drugs): inhibited
FC(F)(F)Cc1nnc2c(Cl)c(N3CCC(F)(c4ccccc4)CC3)ccn12 [compound 3, 8-Chloro-7-(4-fluoro-4-phenyl-1-piperidinyl)-3-(2,2,2-trifluoroethyl)-1,2,4-triazolo[4,3-a]pyridine] | inhibited | 14.1 | 10.7 | 15.2 | inhibited | ≤2.5 mg/kg, s.c. | 6.94 | –
FC(F)(F)c1c(N2CCC(c3ccccc3)CC2)ccn2c(CC3CC3)nnc12 [compound 43, 3-(Cyclopropylmethyl)-7-(4-phenyl-1-piperidinyl)-8-(trifluoromethyl)-1,2,4-triazolo[4,3-a]pyridine] | inhibited | 16.3 | 2.35 | 5.4 | inhibited | ≤2.5 mg/kg, s.c. | – | ED50 ([4]; Mus musculus, sc, male NMRI mice, s.c., d-amphetamine 5 mg/kg s.c., criterion total distance <5500 counts, read-out: ED50, inhibition of amphetamine-induced hyperlocomotion): 37 mg/kg; activity against d-amphetamine-induced hyperlocomotion in mice (in words) ([4]; mice): active; effect of subchronic treatment on REM sleep effect (in words) (REM sleep in rats; once daily dosing for 7 days, 3, 10 and 30 mg/kg, p.o.): did not diminish the effects
Fc1ccc(N2CCN(c3ccn4c(CC(F)(F)F)nnc4c3Cl)CC2)c(F)c1 [compound 97] | inhibited | – | – | – | inhibited | ≤10 mg/kg, s.c. | 6.3 | ED50 (mg/kg) CAR-Inh. [2, 5]: 32*^b) mg/kg; ED50 (mg/kg) CAR-Inh. [2, 6]: 16^b) mg/kg; Mice ED50 (mg/kg) PCP-Inh., estimated ED50 (footnote a) ([3]; mice, inhibition of PCP-induced hyperlocomotion, estimated ED50 values (n = 3 per dose; 4-fold separation between doses)): 6.3 ^a) mg/kg
